Results from US20120189603A1, “STORAGE-STABLE, SYNERGISTIC MICROBICIDAL CONCENTRATES CONTAINING AN ISOTHIAZOLONE, AN AMINE AND AN OXIDIZING AGENT” (L"AIR LIQUIDE, SOCIETE ANONYME POUR L'ETUDE ET L' …, priority 2009, published 2012).

What was measured:
Assay in all cases: Germ-count reduction test, sterile town water, pH adjusted to 8.2
Set-up in all cases: key: −: growth-free; +: slight growth; ++: moderate growth; +++: considerable growth; ++++: massive growth; L: lawn-like growth
Settings in all cases: +0.01% 2
S. aureus = format: cell-based, Staphylococcus aureus
Experimental: (§1) The pH was adjusted to 8.2 with HCl.
(§2) 24-Hour CSL cultures are prepared from 24-hour CS slant agar cultures of Staphylococcus aureus/Pseudomonas aeruginosa. Incubation takes place at 37° C.
(§3) The titre of the bacteria suspensions is ca. 10^9 CFU/ml.
(§4) A dilution series of four concentrations is prepared from the active ingredient to be tested and poured into 10 ml sterile tubes. One dilution series is required per test germ. Each tube is inoculated with 0.1 ml of the individual germ suspensions.
(§5) […] The bacteria are streaked on CSA and incubated for 48 hours at 37° C. (Pseudomonas aeruginosa and Staphylococcus aureus) or 25° C. (Pseudomonas fluorescens/Pseudomonas putida). The fungi are streaked on Sabouraud agar and incubated for 48 hours at 37° C. (Candida albicans) and 25° C. (Aspergillus niger).

P. funiculosum = format: cell-based
A. niger = format: cell-based, Aspergillus niger
Experimental: as §1
A 7-14-day-old Aspergillus niger culture on Sabouraud agar is elutriated with 5 ml of NaCl, filtered through a glass filter containing glass wool and topped up to 200 ml. This suspension has a titre of ca. 10^7 CFU/ml.
as §4, §5

P. aeruginosa = format: cell-based, Pseudomonas aeruginosa
Experimental: as §1, §2, §3, §4, §5

E. coli = format: cell-based
C. albicans = format: cell-based, Candida albicans
Experimental: as §1
A 4-day-old Candida albicans culture (CSA+grape sugar) is elutriated with 5 ml of physiological sodium chloride solution and adjusted in accordance with a barium sulphate standard (see DVG Guideline). The titre of the Candida albicans suspension is 10^8 CFU/ml.
as §4, §5

`CCCCCCCCCCCCN(CCCN)CCCN` [compound 2, bis(aminopropyl)dodecylamine] was tested, and the growth (S. aureus; 1 h) was “−”, the growth (S. aureus; 3 h) was “−” and the growth (S. aureus; 6 h) was “−”. The growth (S. aureus; 24 h) was “−”, the growth (P. funiculosum; 1 h) was “−” and the growth (P. funiculosum; 3 h) was “−”. The growth (P. funiculosum; 6 h) was “−”, the growth (P. funiculosum; 24 h) was “−” and the growth (A. niger; 1 h) was “−”. For the same compound, the growth (A. niger; 3 h) was “−”, the growth (A. niger; 6 h) was “−” and the growth (A. niger; 24 h) was “−”. For the same compound, the growth (P. aeruginosa; 1 h) was “+”, the growth (P. aeruginosa; 3 h) was “+” and the growth (P. aeruginosa; 6 h) was “−”. The growth (P. aeruginosa; 24 h) was “−”, the growth (E. coli; 1 h) was “+” and the growth (E. coli; 3 h) was “−”. For the same compound, the growth (E. coli; 6 h) was “−”, the growth (E. coli; 24 h) was “−” and the growth (C. albicans; 1 h) was “−”. For the same compound, the growth (C. albicans; 3 h) was “−”, the growth (C. albicans; 6 h) was “−” and the growth (C. albicans; 24 h) was “−”.
